Key:
[1] = molecular target: T1, rDdGSTA2 (Dictyostelium discoideum, UniProt Q556G3); test: CDNB conjugation, absorbance at […] nm, Michaelis-Menten fit; format: biochemical; details: saturating GSH; pH 7.5; 25°C
T1 construct: gene gsta2-1
T1 sequence (Q556G3 1-198): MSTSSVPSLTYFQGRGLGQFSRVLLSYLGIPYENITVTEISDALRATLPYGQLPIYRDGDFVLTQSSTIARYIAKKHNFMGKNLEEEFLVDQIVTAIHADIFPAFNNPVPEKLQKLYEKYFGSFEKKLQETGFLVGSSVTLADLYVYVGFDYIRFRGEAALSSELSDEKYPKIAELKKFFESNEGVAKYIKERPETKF

[2] = molecular target: T2, rDdGSTA3 (Dictyostelium discoideum, UniProt Q54VI4); test: as above; format: biochemical; details: saturating GSH; pH 7.5; 25°C
T2 construct: gene gsta3
T2 sequence (Q54VI4 1-204): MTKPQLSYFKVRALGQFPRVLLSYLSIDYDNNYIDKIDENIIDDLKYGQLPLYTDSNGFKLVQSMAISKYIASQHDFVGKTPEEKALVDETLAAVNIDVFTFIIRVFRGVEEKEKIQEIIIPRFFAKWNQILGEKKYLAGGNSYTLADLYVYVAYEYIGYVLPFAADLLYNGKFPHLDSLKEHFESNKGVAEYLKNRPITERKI

SMILES: O=[N+]([O-])c1ccc(Cl)c([N+](=O)[O-])c1 [CDNB, 1-chloro-2,4-dinitrobenzene]
- Km [1]: 1290 ± 200 µM
- Km [2]: 562 ± 98.1 µM

Source: PMC8081208, “Characterization of glutathione S-transferase enzymes in Dictyostelium discoideum suggests a functional role for the GSTA2 isozyme in cell proliferation and development” (PLoS ONE, 2021)
